Laboratory results reported in US9462808B2, “Pesticidal compositions” (Syngenta Participants AG, priority 2010, dated 2016).
Read-outs that look alike come from different tables or passages of the source.

Legend:
[1] = system: Nilaparvata lugens (brown plant hopper, BPH); assay: Activity against Nilaparvata lugens (brown plant hopper, BPH) on rice, spray with safeners, 7 d after application (Example B2); format: in vivo; conditions: 168 h
Experimental: Eight replicates (pots with rice plants) were sprayed with respective test solutions. Test solutions contained the formulated test compound and the safener cloquintocet and N-(2-methoxybenzoyl)-4-[(methylaminocarbonyl)amino]-benzenesulfonamide at different ratios. 4 pots were infested with plant hopper nymphs right after application. 7d after application BPH mortality and plant safety were evaluated. […] Assessment on plant safety was done by measuring the average plant height per replicate.

[2] = system: Rhopalosiphum padi (cereal aphid); assay: Activity against Rhopalosiphum padi (cereal aphid) on wheat, spray with safener cloquintocet, 6 days after application (Example B1); format: in vivo; conditions: 144 h
Experimental: One replicate consisted of 4 wheat plants per pot. […] 9 days after seeding all wheat plants (10replicates) were sprayed with respective test solutions. […] 6 days after application aphid mortality and phytotoxicity were evaluated. […] Additionally the average plant height per replicate was measured.

melting point | Compound | other results
96 to 110 °C | CCOC(=O)OC1=C(c2cc(C)ccc2C)C(=O)N(C)C12CCN(OC)CC2 [Compound P1.1] | 
101 to 103 °C | CCOC(=O)OC1=C(c2c(C)cc(C)cc2C)C(=O)N(CC)C12CCN(OC)CC2 [Compound P1.8] | 
158 to 159 °C | CCOC(=O)OC1=C(c2cc(C)c(C)cc2Br)C(=O)N(C)C12CCN(OC)CC2 [Compound P1.20] | 
149 to 150 °C | CCOC(=O)OC1=C(c2cc(C)c(C)cc2Cl)C(=O)N(C)C12CCN(OC)CC2 [Compound P1.22] | 
 | CCOC(=O)OC1=C(c2c(C)cc(Cl)cc2C)C(=O)N(C)C12CCN(OC)CC2 [Compound P1.29] | mortality at 12.5 ppm ([1]; read-out: % mortality, corr., 12.5 ppm AI, Cloquintocet, ratio AI:safener 0.9:1, 7 d after application): 98%; mortality at 12.5 ppm ([1]; read-out: % mortality, corr., 12.5 ppm AI, Safener 2, ratio AI:safener 0.9:1, 7 d after application): 65%; mortality at 25 ppm ([1]; read-out: % mortality, corr., 25 ppm AI, Cloquintocet, ratio AI:safener 1.9:1, 7 d after application): 100%; mortality at 25 ppm ([1]; read-out: % mortality, corr., 25 ppm AI, Safener 2, ratio AI:safener 1.9:1, 7 d after application): 95%; mortality at 50 ppm ([1]; read-out: % mortality, corr., 50 ppm AI, Safener 2, ratio AI:safener 1.25:1, 7 d after application): 100%; mortality at 100 ppm ([1]; read-out: % mortality, corr., 100 ppm AI, Safener 2, ratio AI:safener 7.5:1, 7 d after application): 100%; mortality at 200 ppm ([1]; read-out: % mortality, corr., 200 ppm AI, Safener 2, ratio AI:safener 15:1, 7 d after application): 100%; mortality at 25 ppm ([2]; read-out: Efficacy (% mortality) against cereal aphids (Rhopalosiphum padi), test compound 25 ppm, adjuvant Mero 0.1% v/v, ratio AI:safener cell blank (no safener), wheat, 6 days after application, Abbott's formula): 97%; mortality at 25 ppm ([2]; read-out: Efficacy (% mortality) against cereal aphids (Rhopalosiphum padi), test compound 25 ppm, adjuvant Mero 0.1% v/v, safener cloquintocet, ratio AI:safener 1:1, wheat, 6 days after application, Abbott's formula): 96.6%; mortality at 25 ppm ([2]; read-out: Efficacy (% mortality) against cereal aphids (Rhopalosiphum padi), test compound 25 ppm, adjuvant Mero 0.1% v/v, safener cloquintocet, ratio AI:safener 1:2, wheat, 6 days after application, Abbott's formula): 96.9%
93 to 95 °C | COCON1C(=O)C(c2cc(C)ccc2C)=C(OC(=O)CC(C)(C)C)C12CCN(OC)CC2 [Compound P1ii.5] | 
91 to 93 °C | COCON1C(=O)C(c2cc(C)ccc2C)=C(OC)C12CCN(OC)CC2 [Compound P1ii.31] | 
116 to 119 °C | CCOC(=O)OC1=C(c2c(F)ccc(C)c2Cl)C(=O)N(OCOC)C12CCN(OC)CC2 [Compound P1ii.61] | 
122 to 125 °C | CCOC(=O)OC1=C(c2c(C)cc(Cl)cc2C)C(=O)N(OC)C12CCN(OC)CC2 [Compound P1ii.114] | 
121 to 123 °C | CON1CCC2(CC1)C(O)=C(c1cc(C)ccc1C)C(=O)N2C [Compound P2.1] | 
223 to 225 °C | CON1CCC2(CC1)C(O)=C(c1c(C)cc(C)cc1C)C(=O)N2CC1CC1 [Compound P2.8, 1-Cyclopropylmethyl-4-hydroxy-8-methoxy-3-(2,4,6-trimethyl-phenyl)-1,8-diaza-spiro[4.5]dec-3-en-2-one] | 
218 to 221 °C | CCN1C(=O)C(c2c(C)cc(C)cc2C)=C(O)C12CCN(OC)CC2 [Compound P2.11] | 
191 to 193 °C | CON1CCC2(CC1)C(O)=C(c1cc(C)c(C)cc1Br)C(=O)N2C [Compound P2.23] | 
183 to 186 °C | CON1CCC2(CC1)C(O)=C(c1cc(C)c(C)cc1C)C(=O)N2C [Compound P2.25] | 
191 to 192 °C | CON1CCC2(CC1)C(O)=C(c1cc(C)c(C)cc1Cl)C(=O)N2C [Compound P2.26, 3-(2-Chloro-4,5-dimethyl-phenyl)-4-hydroxy-8-methoxy-1-methyl-1,8-diaza-spiro[4.5]dec-3-en-2-one] | 
182 to 183 °C | CON1CCC2(CC1)C(O)=C(c1cc(Br)c(C)cc1C)C(=O)N2C [Compound P2.28] | 
128 °C (dec.) | COCON1C(=O)C(c2c(C)cc(-c3ccc(Cl)cc3)cc2C)=C(O)C12CCN(OC)CC2 [Compound P2ii.15, 3-(4′-Chloro-3,5-dimethyl-biphenyl-4-yl)-4-hydroxy-8-methoxy-1-methoxymethoxy-1,8-diaza-spiro[4.5]dec-3-en-2-one] | 
135 to 137 °C | CON1CCC2(CC1)C(O)=C(c1c(C)cc(C)cc1C)C(=O)N2OCCOC1CCCCO1 (stereo not shown) [Compound P2ii.22] | 
155 to 158 °C | COCON1C(=O)C(c2c(F)ccc(C)c2Cl)=C(O)C12CCN(OC)CC2 [Compound P2ii.60] | 
63 to 64 °C | COCCON1C(=O)C(c2cc(Br)c(C)cc2C)=C(O)C12CCN(OC)CC2 [Compound P2ii.73] | 
86 to 87 °C | CON1CCC2(CC1)C(O)=C(c1cc(Br)c(C)cc1C)C(=O)N2OC [Compound P2ii.75] | 
71 to 74 °C | COCCON1C(=O)C(c2cc(Br)c(F)cc2C)=C(O)C12CCN(OC)CC2 [Compound P2ii.87] | 
64 to 67 °C | COCON1C(=O)C(c2cc(Br)c(F)cc2C)=C(O)C12CCN(OC)CC2 [Compound P2ii.89] | 
169 to 172 °C | CON1CCC2(CC1)C(O)=C(c1c(C)cc(C)cc1C)C(=O)N2OCC1CCCCC1 [Compound P2ii.96] | 
161 to 164 °C | COCCON1C(=O)C(c2c(C)cc(Cl)cc2C)=C(O)C12CCN(OC)CC2 [Compound P2ii.101] | 
88 to 92 °C | CON1CCC2(CC1)C(O)=C(c1c(C)cc(Cl)cc1C)C(=O)N2OC [Compound P2ii.102] | 
176 to 178 °C | COCON1C(=O)C(c2c(C)cc(Cl)cc2C)=C(O)C12CCN(OC)CC2 [Compound P2ii.104] | 
137 to 139 °C | CON1CCC2(CC1)C(O)=C(c1c(C)cc(Cl)cc1C)C(=O)N2OC1CCCO1 (stereo not shown) [Compound P2ii.105] | 
